Results on twelve molecules are retold here after patent US10130615B2, “Benzomorphan analogs and the use thereof” (priority 2014, dated 2018).

Like-named read-outs stand apart in the source and are kept apart here.

The target in assay [1] is T1, κ-opioid receptor (Homo sapiens, UniProt P41145). In words: κ-opioid receptor GTPγS functional assay, U2OS cells. Set-up: expressed in transfected cells; host or cells: U-2 OS. Particulars: U2OS cells; for EC50: read-out: GTPγS κ EC50. The class given is biochemical. The method, then:
(§1) Plates were incubated for 30 min at a temperature of about 25° C. with shaking.

Assay [2] addresses T2, μ-opioid receptor (Homo sapiens, UniProt P35372). In words: μ-opioid receptor GTPγS functional assay, U2OS cells.
Assay [3] deals with T1, κ-opioid receptor. The experiment in a line: κ-opioid receptor radioligand binding assay ([3H]-U69,593). More on the design: expressed in transfected cells; host or cells: HEK-293. The procedure: κ-opioid Receptor Binding Assay Procedures: Membranes from recombinant HEK-293 cells expressing the human κ opioid receptor (κ) (cloned in house) were prepared by lysing cells in ice cold hypotonic buffer (2.5 mM MgCl2, 50 mM HEPES, pH 7.4) (10 mL/10 cm dish) followed by homogenization with a tissue grinder/Teflon pestle. Membranes were collected by centrifugation at 30,000×g for 15 min at 4° C. and pellets were resuspended in hypotonic buffer to a final concentration of 1-3 mg/mL. Protein concentrations were determined using the BioRad protein assay reagent with bovine serum albumen as standard. Aliquots of κ receptor membranes were stored at −80° C.
Radioligand dose displacement assays used 0.4 nM [^3H]-U69,593 (GE Healthcare, Piscataway, N.J.; 40 Ci/mmole) with 15 μg membrane protein (recombinant κ opioid receptor expressed in HEK 293 cells; in-house prep) in a final volume of 200 μl binding buffer (5% DMSO, 50 mM Trizma base, pH 7.4). Non-specific binding was determined in the presence of 10 μM unlabeled naloxone or U69,593. All reactions were performed in 96-well polypropylene plates for 1 hr at a temperature of about 25° C.

In assay [4] the target is T1, κ-opioid receptor. In words: κ-opioid receptor β-Arr2 activity response, U2OS cells. The class given is cell-based. Set-up: expressed in transfected cells; host or cells: U-2 OS.
Assay [5] deals with T2, μ-opioid receptor. In words: cell-based. Set-up: purchased Perkin Elmer, Shelton, Conn. Particulars: U2OS cells; for Emax: read-out: β-Arr2 μ Emax; for EC50: read-out: β-Arr2 μ EC50.
Assay [6] has as its target T1, κ-opioid receptor. In words: κ-opioid receptor [35S]GTPγS functional assay, HEK-293 or CHO cells. Set-up: expressed in transfected cells; host or cells: HEK-293. Particulars: for Emax: relative to U69,593. The class given is biochemical. The method, then:
as §1

Assay [7] addresses T2, μ-opioid receptor. The experiment in a line: biochemical. More on the design: purchased Perkin Elmer, Shelton, Conn; host or cells: HEK-293 or CHO. Particulars: HEK-293 or CHO cells; for EC50: read-out: GTPγS μ EC50; for Emax: relative to DAMGO, read-out: GTPγS μ Emax.
Assay [8] has as its target T2, μ-opioid receptor. The experiment in a line: μ-opioid receptor radioligand binding assay ([3H]-diprenorphine). Conditions: HEK-293 or CHO cells; read-out: Ki (nM) Opioid Receptor μ. More on the design: purchased Perkin Elmer, Shelton, Conn; host or cells: HEK-293 or CHO. The method, then: μ-opioid Receptor Binding Assay Procedures: Radioligand dose-displacement binding assays for μ-opioid receptors used 0.3 nM [^3H]-diprenorphine (Perkin Elmer, Shelton, Conn.), with […] membrane protein/well in a final volume of 500 μl binding buffer (10 mM MgCl2, 1 mM EDTA, 5% DMSO, 50 mM HEPES, pH 7.4). Reactions were carried out in the absence or presence of increasing concentrations of unlabeled naloxone. All reactions were conducted in 96-deep well polypropylene plates for 2 hr at room temperature. […] The data were analyzed using the one-site competition curve fitting functions in GraphPad PRISM™ v. 3.0 or higher (San Diego, Calif.), or an in-house function for one-site competition curve-fitting.

[9] abbreviates: HEK-293 or CHO cells, read-out: Ki (nM) Opioid Receptor κ.
The mark [10] stands for this setting: U2OS cells, read-out: β-Arr2 κ EC50.
The mark [11] stands for this setting: HEK-293 or CHO cells, read-out: GTPγS κ EC50.

T1 sequence (P41145 whole entry): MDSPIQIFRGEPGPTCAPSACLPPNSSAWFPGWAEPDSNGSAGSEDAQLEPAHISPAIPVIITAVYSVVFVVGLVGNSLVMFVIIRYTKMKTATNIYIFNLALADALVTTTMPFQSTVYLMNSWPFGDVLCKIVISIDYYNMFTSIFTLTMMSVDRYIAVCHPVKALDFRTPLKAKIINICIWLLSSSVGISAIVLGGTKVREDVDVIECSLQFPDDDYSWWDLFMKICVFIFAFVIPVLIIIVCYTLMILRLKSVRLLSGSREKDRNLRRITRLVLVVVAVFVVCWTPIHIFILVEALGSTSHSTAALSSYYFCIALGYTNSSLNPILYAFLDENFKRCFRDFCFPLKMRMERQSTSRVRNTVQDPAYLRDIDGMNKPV
T2 sequence (P35372 whole entry, species assumed): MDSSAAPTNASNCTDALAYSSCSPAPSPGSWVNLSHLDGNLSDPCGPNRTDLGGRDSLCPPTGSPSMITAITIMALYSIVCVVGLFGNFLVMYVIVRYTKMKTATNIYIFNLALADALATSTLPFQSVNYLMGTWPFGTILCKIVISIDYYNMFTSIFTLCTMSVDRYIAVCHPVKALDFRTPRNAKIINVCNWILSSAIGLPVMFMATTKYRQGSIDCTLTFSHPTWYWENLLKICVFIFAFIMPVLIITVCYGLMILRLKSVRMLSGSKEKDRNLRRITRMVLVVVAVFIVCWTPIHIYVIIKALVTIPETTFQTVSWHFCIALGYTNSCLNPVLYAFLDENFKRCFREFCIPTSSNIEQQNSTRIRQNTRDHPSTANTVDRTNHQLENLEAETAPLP

The term Emax denotes the greatest response seen or fitted, relative to the assay's reference. The EC50 is the concentration that produces a half-maximal response. By Ki is commonly meant the dissociation constant of the complex between target and ligand, obtained from inhibition or displacement. As to `C[C@H]1[C@H]2Cc3ccc(O)cc3[C@]1(CCNC(=O)Nc1ccc(C(=O)O)cc1)CCN2CC1CC1` [Compound 2, 4-(3-(2-((2R,6R,11R)-3-(cyclopropyl-methyl)-8-hydroxy-11-methyl-2,3,4,5-tetrahydro-2,6-methanobenzo[d]azocin-6(1H)-yl)ethyl)ureido)benzoic acid], the Emax at κ-opioid receptor [1] is 106 ± 2.52%; at μ-opioid receptor [2] (read-out: GTPγS μ Emax), 72.5 ± 1.5%; on κ-opioid receptor [4] (U2OS cells), 28.7 ± 4.67%; at μ-opioid receptor [5] it was -1.5%. Moreover, the results for the EC50 at κ-opioid receptor [1], at μ-opioid receptor [2] and at κ-opioid receptor [4] (setting [10]) were 4.11 ± 0.25 nM, 1.89 ± 0.18 nM and 8.4 ± 1.86 nM, respectively. For the same molecule, the inhibition constant (Ki) at κ-opioid receptor [3] (setting [9]) came to 7.08 ± 0.71 nM.

Regarding `C[C@H]1[C@H]2Cc3ccc(O)cc3[C@]1(CCN1CCS(=O)(=O)CC1)CCN2C` [Compound 10, 4-(2-((2R,6R,11R)-8-hydroxy-3,11-dimethyl-2,3,4,5-tetrahydro-2,6-methanobenzo[d]azocin-6(1H)-yl)-ethyl)thiomorpholine 1,1-dioxide], the EC50 on κ-opioid receptor [6] (setting [11]) is 516 ± 33.9 nM; at μ-opioid receptor [7] it was 133 ± 16.1 nM; at κ-opioid receptor [4] (setting [10]) it was 4660 ± 1720 nM; at μ-opioid receptor [5], 129 ± 34.4 nM. The Emax at κ-opioid receptor [6] (HEK-293 or CHO cells) amounted to 26.6 ± 1.52%; on μ-opioid receptor [7], 51 ± 1.08%; on κ-opioid receptor [4] (U2OS cells), 17.2 ± 0.97%; on μ-opioid receptor [5], 2.83 ± 0.27%. At κ-opioid receptor [3] (setting [9]), the Ki stood at 77 ± 2.02 nM.

For `C[C@H]1[C@H]2Cc3ccc(O)cc3[C@]1(CCNC(=O)[C@@H]1CCCCN1)CCN2CC1CC1` [Compound 11, (S)-N-(2-((2R,6R,11R)-3-(cyclopropyl-methyl)-8-hydroxy-11-methyl-2,3,4,5-tetrahydro-2,6-methanobenzo[d]azocin-6(1H)-yl)ethyl)piperidine-2-carboxamide], the figures for the concentration for a half-maximal effect (EC50) at κ-opioid receptor [6] (setting [11]) and on μ-opioid receptor [7] were 1.04 ± 0.059 nM and 18.3 ± 5.58 nM, respectively. Further, the Emax at κ-opioid receptor [6] (HEK-293 or CHO cells) is 84 ± 3.63%; at μ-opioid receptor [7] it was 23 ± 1.38%; on μ-opioid receptor [5] it was -1.5%. The Ki at κ-opioid receptor [3] (setting [9]) came to 0.17 ± 0.044 nM.

Take `C[C@H]1[C@H]2Cc3ccc(O)cc3[C@]1(CCO)CCN2C` [Compound 12, (2R,6S,11R)-6-(2-hydroxyethyl)-3,11-dimethyl-1,2,3,4,5,6-hexahydro-2,6-methanobenzo[d]azocin-8-ol]: the EC50 worked out at 344 ± 32.6 nM at κ-opioid receptor [6], 237 ± 36.2 nM at μ-opioid receptor [7], 5520 ± 4650 nM on κ-opioid receptor [4] and 386 ± 89.5 nM on μ-opioid receptor [5]. Further, the Emax was found to be 37.1 ± 1.43% on κ-opioid receptor [6] (HEK-293 or CHO cells), 58.2 ± 1.65% on μ-opioid receptor [7], 12.7 ± 1.57% at κ-opioid receptor [4] (U2OS cells) and 8.83 ± 0.44% at μ-opioid receptor [5]. Moreover, the Ki on κ-opioid receptor [3] amounted to 22.4 ± 3.57 nM.

For the molecule `C[C@H]1[C@H]2Cc3ccc(O)cc3[C@]1(CCNS(C)(=O)=O)CCN2C` [Compound 13, N-(2-((2R,6S,11R)-8-hydroxy-3,11-dimethyl-2,3,4,5-tetrahydro-2,6-methanobenzo[d]azocin-6(1H)-yl)ethyl)methanesulfonamide], the EC50 at κ-opioid receptor [6] (setting [11]) is 166 ± 1.48 nM; at μ-opioid receptor [7], 285 ± 72 nM. In addition, the Emax is 30.8 ± 0.19% at κ-opioid receptor [6] (HEK-293 or CHO cells), 25 ± 1.53% at μ-opioid receptor [7] and -1% at μ-opioid receptor [5]. At κ-opioid receptor [3] (setting [9]), the Ki was 20.5 ± 3.21 nM.

For `COc1ccc2c(c1)[C@]1(CCNC3(C(=O)O)CC3)CCN(CC3CC3)[C@H](C2)[C@@H]1C` [Compound 34, 1-((2-((2R,6R,11R)-3-(cyclopropyl-methyl)-8-methoxy-11-methyl-2,3,4,5-tetrahydro-2,6-methanobenzo[d]azocin-6(1H)-yl)ethyl)amino)cyclopropane-1-carboxylic acid], the figures for the EC50 on κ-opioid receptor [6] (setting [11]) and on μ-opioid receptor [7] were 7900 ± 2010 nM and 2880 ± 310 nM, respectively. In addition, the Emax on κ-opioid receptor [6] (HEK-293 or CHO cells) was found to be 81.3 ± 10.2%; on μ-opioid receptor [7], 70.3 ± 3.71%. For the same molecule, the Ki at κ-opioid receptor [3] (setting [9]) stood at 286 ± 2.93 nM; at μ-opioid receptor [8], 1470 ± 177 nM.

Take `COc1ccc2c(c1)[C@]1(CCNCC(=O)O)CCN(CC3CC3)[C@H](C2)[C@@H]1C` [Compound 36, (2-((2R,6R,11R)-3-(cyclopropyl-methyl)-8-methoxy-11-methyl-2,3,4,5-tetrahydro-2,6-methanobenzo[d]azocin-6(1H)-yl)ethyl)glycine]: the figures for the EC50 at κ-opioid receptor [6] (setting [11]) and on μ-opioid receptor [7] were 1980 ± 216 nM and 798 ± 24.1 nM, respectively. Further, the Emax at κ-opioid receptor [6] (HEK-293 or CHO cells) came to 69 ± 6.24%; on μ-opioid receptor [7], 39 ± 1.53%. In addition, the Ki at κ-opioid receptor [3] (setting [9]) amounted to 133 ± 22.9 nM; on μ-opioid receptor [8] it was 1020 ± 51.3 nM.

On to `COC(=O)[C@@H](NCC[C@@]12CCN(CC3CC3)[C@@H](Cc3ccc(OC)cc31)[C@H]2C)C(C)C` [Compound 37, methyl (2-((2S,6S,11S)-3-(cyclopropyl-methyl)-8-methoxy-11-methyl-2,3,4,5-tetrahydro-2,6-methanobenzo[d]azocin-6(1H)-yl)ethyl)-L-valinate], for which, at μ-opioid receptor [7], the EC50 is 9390 ± 820 nM. For the same molecule, the Emax at μ-opioid receptor [7] amounted to 19.3 ± 2.33%. The Ki on κ-opioid receptor [3] (setting [9]) was 8990 ± 2060 nM; at μ-opioid receptor [8], 13900 nM.

Turning to `COc1ccc2c(c1)[C@]1(CCN[C@@H](C)C(=O)O)CCN(CC3CC3)[C@H](C2)[C@@H]1C` [Compound 40, (2-((2R,6R,11R)-3-(cyclopropyl-methyl)-8-methoxy-11-methyl-2,3,4,5-tetrahydro-2,6-methanobenzo[d]azocin-6(1H)-yl)ethyl)-L-ananine], the values for the Emax at κ-opioid receptor [1], on κ-opioid receptor [6] (HEK-293 or CHO cells) and on μ-opioid receptor [7] were 115 ± 1.73%, 86.3 ± 7.54% and 77.7 ± 6.12%, respectively. In addition, the figures for the half-maximal effective concentration (EC50) on κ-opioid receptor [1], on κ-opioid receptor [6] (setting [11]) and on μ-opioid receptor [7] were 542 ± 13.1 nM, 7890 ± 1340 nM and 1660 ± 245 nM, respectively. The inhibition constant (Ki) at κ-opioid receptor [3] (setting [9]) amounted to 248 ± 95.7 nM; on μ-opioid receptor [8], 871 ± 211 nM.

`CC(C)[C@H](NCC[C@@]12CCN(CC3CC3)[C@@H](Cc3ccc(O)cc31)[C@H]2C)C(=O)O` [Compound 42, (2-((2S,6S,11S)-3-(cyclopropylmethyl)-8-hydroxy-11-methyl-2,3,4,5-tetrahydro-2,6-methanobenzo[d]azocin-6(1H)-yl)ethyl)-L-valine]: on μ-opioid receptor [7], the EC50 came out at 2390 ± 230 nM and the Emax came out at 56 ± 2.52%. Moreover, the Ki on κ-opioid receptor [3] (setting [9]) is 2620 ± 729 nM. On μ-opioid receptor [8], the Ki worked out at 4610 ± 551 nM.

On to `COc1ccc2c(c1)[C@@]1(CCOCc3ccccc3)CCN(CC3CC3)[C@@H](C2)[C@H]1C` [Compound 44, (2S,6R,11S)-6-(2-(benzyloxy)ethyl)-3-(cyclopropylmethyl)-8-methoxy-11-methyl-1,2,3,4,5,6-hexahydro-2,6-methanobenzo[d]azocine], for which the Emax on κ-opioid receptor [1] is 79.3 ± 3.38%; on κ-opioid receptor [6] (HEK-293 or CHO cells), 32 ± 0.58%; on κ-opioid receptor [4] (U2OS cells) it was 102 ± 11.6%. In addition, the EC50 on κ-opioid receptor [1] was 327 ± 50.5 nM; at κ-opioid receptor [6] (setting [11]), 854 ± 240 nM; at κ-opioid receptor [4] (setting [10]), 10300 ± 1050 nM. The inhibitory constant (Ki) at κ-opioid receptor [3] (setting [9]) stood at 118 ± 8.52 nM; at μ-opioid receptor [8] it was 1840 ± 222 nM.

Regarding `COc1ccc2c(c1)[C@@]1(CCO)CCN(CC3CC3)[C@@H](C2)[C@H]1C` [Compound 46, 2-((2S,6R,11S)-3-(cyclopropylmethyl)-8-methoxy-11-methyl-2,3,4,5-tetrahydro-2,6-methanobenzo[d]azocin-6(1H)-yl)ethan-1-ol], the inhibition constant Ki at κ-opioid receptor [3] is 3580 ± 457 nM.
